Common to all, as to experiment: inhibition of tumour cell growth, NCI panel, 48 h
Experiment [1] has as its system UACC-62 melanoma.
In experiment [2] the test system is SNB-75 CNS.
For experiment [3], the system named is LOX IMVI melanoma.
The subject of experiment [4] is NCI-H522 lung.
Experiment [5] has as its system SK-MEL-28 melanoma.
The test system of experiment [6] is OVCAR-4 ovarian.
Experiment [7] has as its system SK-OV-3 ovarian.
Experiment [8] deals with MCF7 breast.
Experiment [9] concerns T-47D breast.

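Each compound was tested at five concentrations against cells in 96-well plates for 48 hours. Here, GI50 denotes the concentration required for 50% inhibition of growth. TGI marks complete inhibition of growth.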

In the case of `COc1cc2c(cc1OCCCCOc1cc(-c3ccc(F)cc3)nc(C)n1)N=C[C@@H]1CCCN1C2=O`, the TGI is 1.28 µM in [1]; 17.8 µM in experiment [2]; 0.663 µM in experiment [3]; 2.28 µM in [4]; 2.81 µM in experiment [5]; 2.3 µM in experiment [6]. Moreover, the TGI in [7] stood at 16.2 µM; in [8], 15.2 µM; in [9], 1.14 µM.

Consider `CC1(C)O[C@@H]2COC(=O)[C@@H]2O1`, for which the TGI in [1], in [2], in experiment [3], in [4], in experiment [5] and in experiment [6] was above 100 µM throughout. Moreover, the TGI in experiment [7], in experiment [8] and in experiment [9] was above 100 µM throughout.

As for `CCOC(=O)c1[nH]cc(C)c1-c1ccn(-c2ccccc2)c1`, the TGI in experiment [1] was above 100 µM; in [2], 49.5 µM; in experiment [3] it was above 100 µM; in [4] it was 71.2 µM; in [5] it was above 100 µM; in experiment [6], above 100 µM. The TGI in experiment [7], in experiment [8] and in experiment [9] was above 100 µM in each case.

Take `COc1ccc2c(c1)O/C(=C\c1cccc(OCC(=O)Nc3nc4c(s3)CCCC4)c1)C2=O`: the GI50 in experiment [1] is above 46.2 µM; in experiment [2], 11.5 µM; in experiment [3], 1.16 µM; in experiment [4] it was 3.79 µM; in [5] it was above 100 µM; in experiment [6], above 100 µM. For the same molecule, the GI50 was above 72.6 µM in experiment [7], 12.8 µM in experiment [8] and 6.39 µM in [9]. Moreover, the TGI in experiment [1] is above 100 µM; in experiment [2], 54.9 µM; in experiment [3] it was 3.32 µM; in experiment [4], 13.9 µM; in [5] it was above 100 µM; in experiment [6], above 100 µM. In addition, the TGI in experiment [7], in experiment [8] and in [9] was above 100 µM each time.

Regarding `Oc1ccc(-c2nnc3sc(-c4ccc(F)cc4)nn23)cc1`, the GI50 in [1] was 31.8 µM; in experiment [2] it was 22.8 µM; in [3] it was 34.5 µM; in experiment [4], 62 µM; in experiment [5] it was above 100 µM; in experiment [6], above 100 µM. Moreover, the GI50 in experiment [7] is 34.9 µM; in experiment [8], 59.7 µM; in experiment [9] it was 21 µM. In addition, the TGI in [1] is above 100 µM; in [2] it was 43.3 µM; in experiment [3], above 100 µM; in [4] it was above 100 µM; in experiment [5] it was above 100 µM; in experiment [6], above 100 µM. The TGI in experiment [7], in experiment [8] and in [9] was above 100 µM each time.

Turning to `O=C(NC(Cc1c[nH]c2ccccc12)C(=O)O)/C(=C/c1ccccc1O)NC(=O)c1ccccc1` (stereo not drawn), the TGI in experiment [1] was above 100 µM; in experiment [2] it was 38.5 µM; in experiment [3], above 100 µM; in [4], above 100 µM; in [5], above 100 µM; in experiment [6], above 100 µM. The results for the TGI in [7], in experiment [8] and in [9] were 56.7 µM, 24.9 µM and above 100 µM, respectively.

`C=C1[C@@H](O)C[C@@]23CC[C@@H]4[C@@]5(C)CC[C@@H](OC(C)=O)C(C)(C)[C@@H]5C[C@@H](OC5OC(COC(C)=O)C(O)C(O)C5O)[C@@]4(C)C2=CC[C@H]3[C@H]1C` (stereo partly drawn): the TGI in experiment [1] is 20.5 µM; in experiment [2], 16.1 µM; in [3], 10.9 µM; in experiment [4], 21.1 µM; in experiment [5] it was 19.8 µM; in experiment [6], 21 µM. The TGI is 26.1 µM in [7], 7.77 µM in [8] and 19.2 µM in [9].

In the case of `CCSC1=CC(=O)c2nc3ccccc3c3ccnc1c23`, the TGI in experiment [1] was 4.32 µM; in experiment [2], 26.6 µM; in experiment [3], above 36.1 µM; in [4], 3.78 µM; in experiment [5], 25.3 µM; in experiment [6], 7.53 µM. For the same molecule, the TGI in experiment [7] is above 100 µM; in experiment [8], 4.79 µM; in [9] it was 78.2 µM.

In the case of `O=[N+]([O-])C(=C(N1CCCCC1)N1CCCCC1)/C(Cl)=C(\Cl)Br`, the TGI is 28.1 µM in experiment [1]; 34.4 µM in experiment [2]; 44.9 µM in [3]; 33.9 µM in [4]; 41.4 µM in experiment [5]; 66.5 µM in experiment [6]. For the same molecule, the results for the TGI in experiment [7], in experiment [8] and in [9] were above 100 µM, 88.9 µM and 65.1 µM, respectively.

With `Cc1cn2c(/C=C3/C(=O)Nc4cccc(Cl)c43)c(Cl)nc2s1`, the TGI in experiment [1] was above 100 µM; in experiment [2] it was 43.6 µM; in [3] it was above 100 µM; in experiment [4], above 100 µM; in experiment [5], 36.5 µM; in experiment [6], above 100 µM. Moreover, the TGI in experiment [7], in experiment [8] and in experiment [9] was above 100 µM in each case.

Take `CC1(C)C(c2ccccc2)=[N+]([O-])C(C)(C)N1O`: the TGI in experiment [1], in experiment [2], in experiment [3], in experiment [4], in [5] and in [6] was above 10 µM each time. The TGI in experiment [7], in experiment [8] and in experiment [9] was above 10 µM in each case.

Consider `O=C1CCC(=Nc2ccc(Cl)cc2)N1C(=O)COc1ccc(OCC(=O)N2C(=O)CSC2=Nc2ccc(Cl)cc2)cc1`, for which the TGI is above 100 µM in experiment [1]; 91.9 µM in experiment [2]; above 100 µM in [3]; above 100 µM in experiment [4]; above 100 µM in [5]; above 100 µM in experiment [6]. The TGI in [7], in [8] and in experiment [9] was above 100 µM each time.

Consider `CC(C)=C[C@@H]1C[C@H](n2cc(C)c(=O)[nH]c2=O)ON1CCO`, for which the TGI in experiment [1], in experiment [2], in experiment [3], in [4], in [5] and in [6] was above 100 µM in each case. Also, the TGI in experiment [7], in experiment [8] and in experiment [9] was above 100 µM in each case.

Take `Cc1ccccc1OC(C)C(=O)NN1C(=O)CC(=O)N(c2ccc(Cl)cc2)C1=S` (stereo not drawn): the TGI in [1], in [2], in [3], in experiment [4], in experiment [5] and in experiment [6] was above 100 µM each time. Besides, the TGI in [7], in [8] and in experiment [9] was above 100 µM throughout.

Consider `CSCCC(NCc1c(O)ccc2c(-c3ccccc3)cc(=O)oc12)C(=O)O` (stereo not drawn), for which the TGI in [1], in experiment [2], in experiment [3], in experiment [4], in experiment [5] and in [6] was above 100 µM each time. The TGI in experiment [7], in [8] and in experiment [9] was above 100 µM in each case.

As to `COc1cc2c(cc1OC)C1c3ccccc3CCN1CC2` (stereo not drawn), the TGI in experiment [1], in [2], in experiment [3], in [4], in [5] and in experiment [6] was above 100 µM each time. The TGI in experiment [7], in experiment [8] and in [9] was above 100 µM throughout.

Regarding `COc1ccc(N[C@H](CSc2ccc(C)cc2)c2ccc(F)cc2)cc1`, the TGI in [1], in experiment [2], in experiment [3], in experiment [4], in [5] and in experiment [6] was above 100 µM each time. Moreover, the TGI in [7], in [8] and in experiment [9] was above 100 µM each time.

Turning to `O=c1cc(/C=C/c2ccc(O)c(O)c2)oc(/C=C/c2ccc(O)c(O)c2)c1`, the TGI in experiment [1] is 6.43 µM; in experiment [2], 15.3 µM; in experiment [3], above 25.2 µM; in experiment [4] it was 4 µM; in experiment [5], 31.6 µM; in experiment [6], 11.7 µM. Also, the TGI in experiment [7] amounted to 21.8 µM; in experiment [8], 30.8 µM; in experiment [9], 9.5 µM.

For the molecule `O=C(CN1CCCCC1)CC(O)(C(F)(F)F)C(F)(F)F`, the TGI in [1], in experiment [2], in experiment [3], in [4], in experiment [5] and in [6] was above 100 µM throughout. Besides, the TGI in experiment [7], in [8] and in experiment [9] was above 100 µM throughout.

Take `O=C1/C(=C/c2ccccc2S)N=C(c2ccccc2)N1c1nc2ccc(Sc3ccccc3)cc2[nH]1`: the TGI in experiment [1] was 73.5 µM; in [2], 93.5 µM; in experiment [3], above 100 µM; in [4], 54.2 µM; in experiment [5], above 100 µM; in experiment [6] it was above 100 µM. Moreover, the TGI in [7] is above 100 µM; in experiment [8], 84.5 µM; in [9], above 100 µM.

For the origin of these results see PubChem BioAssay (NCI).
